PubChem BioAssay AID1963866 (Molecular Pharmacology Branch, DTP, NCI, 2024)
pIC50: −log10 of the molar value.

System: PDC KRAS tumor spheroids with HUVEC/MSC, viability
Experiment: Anticancer human tumor 349418-098-R-PDC patient-derived lung adenocarcinoma cell line growth inhibition [KRAS2]
Settings: for pIC50: curve of first compound; for viability, T/C: stronger effect = lower value
In short: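 Combination screen of spheroid viability in tumor-cell co-cultures with endothelial (HUVEC) and mesenchymal stem cell stroma. Each agent was tested in half-log dilutions, topping at clinical Cmax or at 10 microM without a known Cmax.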

[1] = second compound 0.0316 µM, first compound 0.0316 µM
[2] = second compound 0.0316 µM, first compound 0.1 µM
[3] = second compound 0.0316 µM, first compound 0.316 µM
[4] = second compound 0.0316 µM, first compound 1 µM
[5] = second compound 0.0316 µM, first compound 3.16 µM
[6] = second compound 0.0316 µM, first compound 10 µM
[7] = second compound 0.1 µM, first compound 0.0316 µM
[8] = second compound 0.1 µM, first compound 0.1 µM
[9] = second compound 0.1 µM, first compound 0.316 µM
[10] = second compound 0.1 µM, first compound 1 µM
[11] = second compound 0.1 µM, first compound 3.16 µM
[12] = second compound 0.1 µM, first compound 10 µM
[13] = second compound 0.316 µM, first compound 0.0316 µM
[14] = second compound 0.316 µM, first compound 0.1 µM
[15] = second compound 0.316 µM, first compound 0.316 µM
[16] = second compound 0.316 µM, first compound 1 µM
[17] = second compound 0.316 µM, first compound 3.16 µM
[18] = second compound 0.316 µM, first compound 10 µM
[19] = second compound 1 µM, first compound 0.0316 µM
[20] = second compound 1 µM, first compound 0.1 µM
[21] = second compound 1 µM, first compound 0.316 µM
[22] = second compound 1 µM, first compound 1 µM
[23] = second compound 1 µM, first compound 3.16 µM
[24] = second compound 1 µM, first compound 10 µM
[25] = second compound 3.16 µM, first compound 0.0316 µM
[26] = second compound 3.16 µM, first compound 0.1 µM
[27] = second compound 3.16 µM, first compound 0.316 µM
[28] = second compound 3.16 µM, first compound 1 µM
[29] = second compound 3.16 µM, first compound 3.16 µM
[30] = second compound 3.16 µM, first compound 10 µM
[31] = second compound 0.0316 µM, first compound 0.01 µM
[32] = second compound 0.1 µM, first compound 0.01 µM
[33] = second compound 0.316 µM, first compound 0.01 µM
[34] = second compound 1 µM, first compound 0.01 µM
[35] = second compound 3.16 µM, first compound 0.01 µM
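Also: spheroids exposed to compounds for seven days before readout.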

| Structure (SMILES) | pIC50 (second compound 0.0316 µM) | pIC50 (second compound 0.1 µM) | pIC50 (second compound 0.316 µM) | pIC50 (second compound 1 µM) | pIC50 (second compound 3.16 µM) | viability, T/C [1] | viability, T/C [2] | viability, T/C [3] | viability, T/C [4] | viability, T/C [7] | viability, T/C [8] | viability, T/C [9] | viability, T/C [10] | viability, T/C [13] | viability, T/C [14] | viability, T/C [15] | viability, T/C [16] | viability, T/C [19] | viability, T/C [20] | viability, T/C [21] | further results |
| --- | --- | --- | --- | --- | --- | --- | --- | --- | --- | --- | --- | --- | --- | --- | --- | --- | --- | --- | --- | --- | --- |
| CC(C)NCC(C(=O)N1CCN(c2ncnc3c2C(C)CC3O)CC1)c1ccc(Cl)cc1 (stereo not given) + C=CC(=O)N1CCN(c2nc(OCC3CCCN3C)nc3c2CCN(c2cccc4cccc(C)c24)C3)CC1CC#N | 6.50 | 6.60 | 6.54 | 6.65 | > 7.50 | 95.7% | 69.4% | 52.3% | 30.7% | 90.8% | 76.8% | 42.5% | 20.9% | 87.7% | 77.9% | 44.7% | 24.6% | 79.9% | 66.1% | 43.7% | viability, T/C [5]: 16.9%; viability, T/C [6]: 6.91%; viability, T/C [11]: 15.2%; viability, T/C [12]: 7.07%; viability, T/C [17]: 15.7%; viability, T/C [18]: 5.1%; viability, T/C [22]: 19%; viability, T/C [23]: 8.97%; viability, T/C [24]: 4.67%; viability, T/C [25]: 0.14%; viability, T/C [26]: 0.14%; viability, T/C [27]: 0.1%; viability, T/C [28]: 0.23%; viability, T/C [29]: 0.21%; viability, T/C [30]: 0.13% |
| CC1COCCN1c1cc(-c2ccnn2C)c2ccnc(-c3ccn[nH]3)c2n1 (stereo not given) + C=CC(=O)N1CCN(c2nc(OCC3CCCN3C)nc3c2CCN(c2cccc4cccc(C)c24)C3)CC1CC#N | 7.53 | 7.51 | 7.62 | > 8.00 | > 8.00 | 47.6% | 9.45% | 5.83% | 4.78% | 49.1% | 9.48% | 5.64% | 4.53% | 33% | 5.66% | 4.96% | 4.7% | 4.15% | 3.41% | 4.26% | viability, T/C [31]: 94.1%; viability, T/C [5]: 4.54%; viability, T/C [32]: 112%; viability, T/C [11]: 3.65%; viability, T/C [33]: 102%; viability, T/C [17]: 4.39%; viability, T/C [34]: 43.6%; viability, T/C [22]: 3.79%; viability, T/C [23]: 3.79%; viability, T/C [35]: 0.1%; viability, T/C [25]: 0.21%; viability, T/C [26]: 0.07%; viability, T/C [27]: 0.06%; viability, T/C [28]: 0.07%; viability, T/C [29]: 0.12% |
| CC1OCC2(CCN(c3cnc(Sc4ccnc(N)c4Cl)c(N)n3)CC2)C1N (stereo not given) + C=CC(=O)N1CCN(c2nc(OCC3CCCN3C)nc3c2CCN(c2cccc4cccc(C)c24)C3)CC1CC#N | < 5.00 | < 5.00 | < 5.00 | 5.19 | > 7.50 | 122% | 95.1% | 92.8% | 96.8% | 108% | 93.6% | 79.8% | 89.4% | 99% | 112% | 97.8% | 98.5% | 71% | 69.4% | 62.9% | viability, T/C [5]: 94.1%; viability, T/C [6]: 68.7%; viability, T/C [11]: 78%; viability, T/C [12]: 83.6%; viability, T/C [17]: 96.8%; viability, T/C [18]: 95.1%; viability, T/C [22]: 58.3%; viability, T/C [23]: 50.2%; viability, T/C [24]: 49.5%; viability, T/C [25]: 0.15%; viability, T/C [26]: 0.15%; viability, T/C [27]: 0.13%; viability, T/C [28]: 0.14%; viability, T/C [29]: 0.14%; viability, T/C [30]: 0.26% |
| CCN1CCN(Cc2ccc(Nc3ncc(F)c(-c4cc(F)c5nc(C)n(C(C)C)c5c4)n3)nc2)CC1 + C=CC(=O)N1CCN(c2nc(OCC3CCCN3C)nc3c2CCN(c2cccc4cccc(C)c24)C3)CC1CC#N | 8.35 | 8.17 | 8.22 | > 8.50 | > 8.50 | 19.3% | 16.6% | 14.1% | 4.49% | 20.2% | 15.4% | 10.2% | 3.97% | 15.8% | 19.1% | 10.4% | 2.4% | 15.2% | 12.4% | 8.99% | viability, T/C (second compound 0.0316 µM, first compound 0.00316 µM): 56%; viability, T/C [31]: 37.7%; viability, T/C (second compound 0.1 µM, first compound 0.00316 µM): 80.7%; viability, T/C [32]: 31.3%; viability, T/C (second compound 0.316 µM, first compound 0.00316 µM): 64.8%; viability, T/C [33]: 40.2%; viability, T/C (second compound 1 µM, first compound 0.00316 µM): 46.1%; viability, T/C [34]: 24.9%; viability, T/C [22]: 0.45%; viability, T/C (second compound 3.16 µM, first compound 0.00316 µM): 0.15%; viability, T/C [35]: 0.09%; viability, T/C [25]: 0.07%; viability, T/C [26]: 0.08%; viability, T/C [27]: 0.08%; viability, T/C [28]: 0.19% |
| CCNC(=O)CC1N=C(c2ccc(Cl)cc2)c2cc(OC)ccc2-n2c(C)nnc21 (stereo not given) + C=CC(=O)N1CCN(c2nc(OCC3CCCN3C)nc3c2CCN(c2cccc4cccc(C)c24)C3)CC1CC#N | 6.91 | 7.02 | 6.73 | 7.32 | > 7.50 | 102% | 50.9% | 34.2% | 8.72% | 93.1% | 48.1% | 21.8% | 9.94% | 101% | 70.5% | 30.6% | 16.6% | 62.9% | 26.6% | 10.7% | viability, T/C [5]: 1.74%; viability, T/C [6]: 0.85%; viability, T/C [11]: 1.6%; viability, T/C [12]: 0.66%; viability, T/C [17]: 4.31%; viability, T/C [18]: 1.58%; viability, T/C [22]: 4.52%; viability, T/C [23]: 0.59%; viability, T/C [24]: 2.47%; viability, T/C [25]: 0.12%; viability, T/C [26]: 0.1%; viability, T/C [27]: 0.09%; viability, T/C [28]: 0.08%; viability, T/C [29]: 0.08%; viability, T/C [30]: 0.13% |
| Cn1nccc1Nc1nccc(-c2cc3c(s2)C(C)(C)N(CCN2CCOCC2)C3=O)n1 + C=CC(=O)N1CCN(c2nc(OCC3CCCN3C)nc3c2CCN(c2cccc4cccc(C)c24)C3)CC1CC#N | 7.35 | 7.22 | 7.31 | > 7.50 | > 7.50 | 57.1% | 33.1% | 20.7% | 8.51% | 70.2% | 31.8% | 21.5% | 8.37% | 62.2% | 31% | 14.8% | 9.55% | 41.5% | 32.5% | 13.6% | viability, T/C [5]: 7.52%; viability, T/C [6]: 5.99%; viability, T/C [11]: 7.54%; viability, T/C [12]: 5.51%; viability, T/C [17]: 7.33%; viability, T/C [18]: 4.36%; viability, T/C [22]: 7.03%; viability, T/C [23]: 4.51%; viability, T/C [24]: 3.02%; viability, T/C [25]: 0.13%; viability, T/C [26]: 0.09%; viability, T/C [27]: 0.07%; viability, T/C [28]: 0.07%; viability, T/C [29]: 0.07%; viability, T/C [30]: 0.17% |
